Measured values taken from US20080280920A1, “Plasminogen Activator Inhibitor-1 Inhibitors” (priority 2005, published 2008).

Assays:
UACC-62 = assay: NCI anticancer screen, UACC-62; type: cell-based, human; settings: UACC-62, Melanoma, 48 h
SW-620 = assay: NCI anticancer screen, SW-620; type: cell-based, human; settings: SW-620, Colon, 48 h
HL-60(TB) = assay: NCI anticancer screen, HL-60(TB); type: cell-based, human; settings: Leukemia, 48 h
HOP-92 = assay: NCI anticancer screen, HOP-92; type: cell-based, human; settings: HOP-92, Non-Small Cell Lung, 48 h
COLO 205 = assay: NCI anticancer screen, COLO 205; type: cell-based, human; settings: COLO 205, Colon, 48 h
HCC-2998 = assay: NCI anticancer screen, HCC-2998; type: cell-based, human; settings: HCC-2998, Colon, 48 h
M14 = assay: NCI anticancer screen, M14; type: cell-based, human; settings: M14, Melanoma, 48 h
786-0 = assay: NCI anticancer screen, 786-0; type: cell-based, human; settings: 786-0, Renal, 48 h
MOLT-4 = assay: NCI anticancer screen, MOLT-4; type: cell-based, human; settings: MOLT-4, Leukemia, 48 h
RXF 393 = assay: NCI anticancer screen, RXF 393; type: cell-based, human; settings: RXF 393, Renal, 48 h
SF-268 = assay: NCI anticancer screen, SF-268; type: cell-based, human; settings: SF-268, CNS, 48 h
SR = assay: NCI anticancer screen, SR; type: cell-based, human; settings: Leukemia, 48 h
NCI-H460 = assay: NCI anticancer screen, NCI-H460; type: cell-based, human; settings: NCI-H460, Non-Small Cell Lung, 48 h
NCI-H322M = assay: NCI anticancer screen, NCI-H322M; type: cell-based, human; settings: Non-Small Cell Lung, 48 h
SF-295 = assay: NCI anticancer screen, SF-295; type: cell-based, human; settings: SF-295, CNS, 48 h
SF-539 = assay: NCI anticancer screen, SF-539; type: cell-based, human; settings: SF-539, CNS, 48 h
HS 578T = assay: NCI anticancer screen, HS 578T; type: cell-based, human; settings: Breast, 48 h
BT-549 = assay: NCI anticancer screen, BT-549; type: cell-based, human; settings: BT-549, Breast, 48 h
DU-145 = assay: NCI anticancer screen, DU-145; type: cell-based, human; settings: DU-145, Prostate, 48 h
LOX IMVI = assay: NCI anticancer screen, LOX IMVI; type: cell-based, human; settings: Melanoma, 48 h
wildtype human PAI-1 = target: T1, wildtype human PAI-1 (Homo sapiens, UniProt P05121); assay: PAI-1/uPA assay (residual uPA activity, fluorescent substrate SpectroFluor); type: biochemical
T1 construct: purchased Molecular Innovations Lot# HWT-804
Method: Principle: The assay is based on using a fluorescent substrate (SpectroFluor) to measure residual uPA following inhibition of uPA by PAI-1. PAI-1 used in the assay is pre-treated in the presence of increasing concentrations of the lead compounds to screen for any inhibitory effects on PAI-1. Method: This assay was performed in 96 well microtiter plates. The concentrations of uPA (8 nM) and PAI-1 (6 nM) used in this assay were carefully optimized when using the fluorescent substrate, SpectroFluor™. Stock solutions (10 mM) of all lead compounds were prepared fresh in DMSO. […] 20 μl of 6 nM wildtype human PAI-1 (Molecular Innovations, Lot# HWT-804) was incubated for 15-20 minutes at room temperature in 96 well microtiter plates either with buffer, (50 mM HEPES, 150 mM NaCl, 0.05% Tween-20, 1% BSA, pH 6.6) or various concentrations (10 nM to 100 μM final concentration) of lead compounds in a total volume of 80 μl. A 20 μl aliquot of 8 nM uPA (HMW) solution in 0.05M Tris Buffered™ saline (TBS), pH 8.4 was added to each well and the mixture incubated for an additional 5 minutes at RT. The proteolytic reaction was initiated by addition of 50 μl of 0.1 mM SpectroFluor (Spectrozyme UK Fluorogenic substrate) to each well. The kinetics of the free chromophore, 7-amino-4-methylcoumarin (AMC) released in the course of peptide cleavage by the protease, uPA, was monitored for 30 minutes at 37° C. on a spectrofluorometric microplate reader with an excitation wavelength of 360 nm and emission wavelength of 440 nm. Kinetic data regarding the rate of substrate cleavage by uPA was acquired with Softmax PrO™ software. The difference between the residual uPA activity in the presence or absence of untreated PAI-1, at the molar ratio used, was considered as the “total” PAI-1 activity (100%). The inhibition of uPA by PAI-1 treated with lead compounds was expressed as a percentage of the initial activity of untreated PAI-1. Controls were performed during each experiment to ensure the nearly complete inhibition of uPA by untreated PAI-1 and also to ensure the absence of any direct effect of the lead compounds on uPA alone or on SpectroFluor.

HCT-15 = assay: NCI anticancer screen, HCT-15; type: cell-based, human; settings: HCT-15, Colon, 48 h
MCF7 = assay: NCI anticancer screen, MCF7; type: cell-based, human; settings: MCF7, Breast, 48 h
[1] = Homo sapiens, read-out: LC50 (the source's name)

T1 sequence (P05121 24-402): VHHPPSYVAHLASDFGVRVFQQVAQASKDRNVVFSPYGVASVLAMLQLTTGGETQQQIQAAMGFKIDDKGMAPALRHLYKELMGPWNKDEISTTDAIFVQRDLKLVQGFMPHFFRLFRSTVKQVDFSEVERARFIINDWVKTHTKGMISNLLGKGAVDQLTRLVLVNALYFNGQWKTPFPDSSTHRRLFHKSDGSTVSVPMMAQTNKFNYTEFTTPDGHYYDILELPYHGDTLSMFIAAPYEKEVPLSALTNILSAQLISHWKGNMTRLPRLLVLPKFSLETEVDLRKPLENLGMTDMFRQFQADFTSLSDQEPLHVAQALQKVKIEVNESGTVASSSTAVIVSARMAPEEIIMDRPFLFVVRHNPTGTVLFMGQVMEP

`CC(C)(C)OC(=O)Nc1ccc(O)c(C(=O)NCCOC(=O)NCCNC(=O)c2cc(OCc3ccccc3)ccc2OCc2ccccc2)c1` [Compound Q012052, 2-[5-(BOC-amino)-2-hydroxybenzoylamino]ethyl 2-[2,5-bis-(benzyl-oxy)benzoylamino]ethylcarbamate] was tested, and the GI50 (UACC-62; Homo sapiens) was greater than 100 µM, the GI50 (SW-620; Homo sapiens) was greater than 100 µM and the GI50 (HL-60(TB); Homo sapiens) was greater than 100 µM. It also gave a GI50 (HOP-92; Homo sapiens) of 83.1 µM, a GI50 (COLO 205; Homo sapiens) of 8.97 µM and a GI50 (HCC-2998; Homo sapiens) greater than 100 µM. For the same molecule, the GI50 (M14; Homo sapiens) was greater than 100 µM, the GI50 (786-0; Homo sapiens) was greater than 100 µM and the GI50 (MOLT-4; Homo sapiens) was 4.05 µM. It also gave a GI50 (RXF 393; Homo sapiens) greater than 100 µM, a GI50 (SF-268; Homo sapiens) greater than 100 µM and a GI50 (SR; Homo sapiens) of 89.8 µM. The GI50 (NCI-H460; Homo sapiens) was greater than 100 µM, the GI50 (NCI-H322M; Homo sapiens) was greater than 100 µM and the GI50 (SF-295; Homo sapiens) was 21.9 µM. The GI50 (SF-539; Homo sapiens) was greater than 100 µM, the GI50 (HS 578T; Homo sapiens) was greater than 100 µM and the GI50 (BT-549; Homo sapiens) was 80.1 µM. For the same molecule, the GI50 (DU-145; Homo sapiens) was greater than 100 µM, the GI50 (LOX IMVI; Homo sapiens) was greater than 100 µM and the “Percent PAI-1 inhibition” value (wildtype human PAI-1; at the concentration given, percent of activity of untreated PAI-1) was 45. The “Conc. of compound required for PAI-1 inhibition” value (wildtype human PAI-1; concentration giving the percent inhibition, 6 nM PAI-1, 8 nM uPA) was 50 nM, the GI50 (HCT-15; Homo sapiens) was greater than 100 µM and the GI50 (MCF7; Homo sapiens) was 17.1 µM.
Work on `COc1cc(CNCC2CCN(C(=O)OC(C)(C)C)CC2)cc(CN2CCN(c3ccccn3)CC2)c1O` [Compound Q012132, 2-Methoxy-4-({[(N-t-butyloxycarbonylpiperidin-4-yl)methyl]amino}methyl)-6-[(4-pyridin-2-ylpiperazin-1-yl)methyl]phenol] yielded a GI50 (UACC-62; Homo sapiens) of 17.2 µM, a CC50 (UACC-62; [1]) of 64.3 µM and a TGI (UACC-62) of 33.3 µM. For the same molecule, the GI50 (SW-620; Homo sapiens) was 16.1 µM, the CC50 (SW-620; [1]) was 59.1 µM and the TGI (SW-620) was 30.8 µM. It also gave a GI50 (HL-60(TB); Homo sapiens) of 14.8 µM, a CC50 (HL-60(TB); [1]) of 72.6 µM and a TGI (HL-60(TB)) of 32.8 µM. It also gave a TGI (HOP-92) of 26.6 µM, a GI50 (HOP-92; Homo sapiens) of 10.7 µM and an LC50 (concentration killing 50% of starting cells) (HOP-92; Homo sapiens) of 66.3 µM. For the same molecule, the TGI (COLO 205) was 34.8 µM, the GI50 (COLO 205; Homo sapiens) was 16.8 µM and the CC50 (COLO 205; [1]) was 72.1 µM. For the same molecule, the TGI (HCC-2998) was 28.9 µM, the GI50 (HCC-2998; Homo sapiens) was 14.5 µM and the LC50 (HCC-2998; Homo sapiens) was 57.7 µM. It also gave a GI50 (M14; Homo sapiens) of 5.8 µM, a CC50 (M14; [1]) of 41.9 µM and a TGI (M14) of 17.5 µM. It also gave a TGI (786-0) of 28.2 µM, a GI50 (786-0; Homo sapiens) of 14.9 µM and a CC50 (786-0; [1]) of 53.1 µM. For the same molecule, the GI50 (MOLT-4; Homo sapiens) was 13 µM, the CC50 (MOLT-4; [1]) was greater than 100 µM and the TGI (MOLT-4) was 42.4 µM. The GI50 (RXF 393; Homo sapiens) was 13.6 µM, the CC50 (RXF 393; [1]) was 67.2 µM and the TGI (RXF 393) was 30.2 µM. It also gave a GI50 (SF-268; Homo sapiens) of 18.5 µM, an LC50 (SF-268; Homo sapiens) greater than 100 µM and a TGI (SF-268) of 44.1 µM. For the same molecule, the GI50 (SR; Homo sapiens) was 11 µM, the CC50 (SR; [1]) was 84.4 µM and the TGI (SR) was 30.5 µM. For the same molecule, the GI50 (NCI-H460; Homo sapiens) was 21.3 µM, the CC50 (NCI-H460; [1]) was 81.7 µM and the TGI (NCI-H460) was 41.7 µM. For the same molecule, the GI50 (NCI-H322M; Homo sapiens) was 37.8 µM, the CC50 (NCI-H322M; [1]) was greater than 100 µM and the TGI (NCI-H322M) was greater than 100 µM. For the same molecule, the GI50 (SF-295; Homo sapiens) was 19.3 µM, the CC50 (SF-295; [1]) was 89 µM and the TGI (SF-295) was 41.4 µM. For the same molecule, the GI50 (SF-539; Homo sapiens) was 14.6 µM, the CC50 (SF-539; [1]) was 54.6 µM and the TGI (SF-539) was 28.2 µM. For the same molecule, the TGI (HS 578T) was 38.2 µM, the GI50 (HS 578T; Homo sapiens) was 16.4 µM and the CC50 (HS 578T; [1]) was 88.6 µM. For the same molecule, the TGI (BT-549) was 28.9 µM, the GI50 (BT-549; Homo sapiens) was 14.6 µM and the CC50 (BT-549; [1]) was 57.1 µM. For the same molecule, the TGI (DU-145) was greater than 100 µM, the GI50 (DU-145; Homo sapiens) was 38.8 µM and the CC50 (DU-145; [1]) was greater than 100 µM. The GI50 (LOX IMVI; Homo sapiens) was 14.1 µM, the LC50 (concentration giving 50% net cell kill) (LOX IMVI; Homo sapiens) was 55.1 µM and the TGI (LOX IMVI) was 27.9 µM. For the same molecule, the “Conc. of compound required for PAI-1 inhibition (result in words)” value (wildtype human PAI-1; within the concentration range tested) was “No inhibition”, the TGI (HCT-15) was 36.9 µM and the GI50 (HCT-15; Homo sapiens) was 16.8 µM. For the same molecule, the CC50 (HCT-15; [1]) was 80.8 µM, the GI50 (MCF7; Homo sapiens) was 18.6 µM and the CC50 (MCF7; [1]) was 73 µM. For the same molecule, the TGI (MCF7) was 36.9 µM.
